Results taken from US20060234987A1, “Neuroprotective benzo 1 3 oxathiol 2 ones” (priority 2003, published 2006).

What was measured:
CD45 = molecular target: T1, CD45 (Homo sapiens, UniProt P08575); experiment: CD45 (PTPase) Assay; format: biochemical; conditions: Table 6
T1 construct: purchased BIOMOL Research Laboratories, Inc
T1 sequence (P08575 26-1306): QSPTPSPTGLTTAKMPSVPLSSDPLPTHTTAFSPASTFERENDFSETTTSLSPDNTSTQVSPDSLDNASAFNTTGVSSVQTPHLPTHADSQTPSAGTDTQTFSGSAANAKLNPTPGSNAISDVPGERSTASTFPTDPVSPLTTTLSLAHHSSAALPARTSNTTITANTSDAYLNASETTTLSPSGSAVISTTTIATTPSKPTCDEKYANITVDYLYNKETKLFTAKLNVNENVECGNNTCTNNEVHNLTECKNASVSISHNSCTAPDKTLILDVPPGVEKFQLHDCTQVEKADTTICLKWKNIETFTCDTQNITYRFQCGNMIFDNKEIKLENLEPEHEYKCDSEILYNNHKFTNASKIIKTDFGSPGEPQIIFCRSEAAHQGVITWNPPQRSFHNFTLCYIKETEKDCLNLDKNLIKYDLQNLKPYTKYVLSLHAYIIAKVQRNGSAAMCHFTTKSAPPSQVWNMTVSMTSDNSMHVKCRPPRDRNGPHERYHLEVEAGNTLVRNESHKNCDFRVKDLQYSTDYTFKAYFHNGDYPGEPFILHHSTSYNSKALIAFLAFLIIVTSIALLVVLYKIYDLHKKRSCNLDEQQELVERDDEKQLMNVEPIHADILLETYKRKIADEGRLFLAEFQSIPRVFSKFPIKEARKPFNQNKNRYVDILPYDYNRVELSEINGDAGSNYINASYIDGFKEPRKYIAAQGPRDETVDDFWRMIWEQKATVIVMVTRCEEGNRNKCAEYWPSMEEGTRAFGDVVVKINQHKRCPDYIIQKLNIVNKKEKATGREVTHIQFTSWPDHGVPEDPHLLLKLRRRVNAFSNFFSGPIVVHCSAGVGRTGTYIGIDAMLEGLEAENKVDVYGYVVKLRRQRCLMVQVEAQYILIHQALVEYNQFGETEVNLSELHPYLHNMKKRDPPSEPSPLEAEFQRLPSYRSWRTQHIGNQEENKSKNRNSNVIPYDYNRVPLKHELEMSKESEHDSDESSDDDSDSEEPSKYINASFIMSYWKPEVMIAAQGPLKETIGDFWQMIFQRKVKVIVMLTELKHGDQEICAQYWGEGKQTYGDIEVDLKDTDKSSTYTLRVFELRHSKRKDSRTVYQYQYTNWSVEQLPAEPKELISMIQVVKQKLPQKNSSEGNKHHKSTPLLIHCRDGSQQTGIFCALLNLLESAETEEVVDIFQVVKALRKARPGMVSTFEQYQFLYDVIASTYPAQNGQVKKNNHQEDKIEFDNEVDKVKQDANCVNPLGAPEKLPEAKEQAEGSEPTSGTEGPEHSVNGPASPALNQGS
Description: D) CD45 (PTPase) Assay: Inhibition of the phosphatase CD45 was performed according to reported procedures (Pacitti, A. et al Biochem. Biophys. Acta, 1994, 1222, 277; Fisher, D. K. and Higgins, T. J. Pharmacol. Res., 1994, 11, 759). CD45 was purchased from BIOMOL Research Laboratories, Inc.

PP1 = PP1 Assay; format: biochemical; conditions: Table 6
Description: E) PP1 Assay: Inhibition of the phosphatase PP1 was performed according to reported procedures (Nat. Biotechnol., 2000, 18, 847).

SCG neurons = experiment: In vitro protection of SCG neurons from cisplatin killing; format: cell-based, Sprague Dawley rats; conditions: Rattus norvegicus, Neuron; cisplatin 3 μg/mL, 48 hours, MTS viability; read-out: IC50 (±1 μM), protection of SCG neurons against cisplatin killing
Description: The mechanism of cisplatin's anti-cancer action is not fully understood, but is believed to involve DNA binding and […]. Cisplatin is toxic to neurons. The addition of cisplatin (3 μg/mL) to cultured SCG neurons induces apoptosis of upwards of 80% of the neurons. The addition of selected compounds of Formula I to the cellular media, concurrently with cisplatin, protects upwards of 100% of the neurons, at drug concentrations ranging from 1 to 50 μM (see Example 64).
In Vitro Protection of SCG neurons from cisplatin killing. SCG neurons were isolated from day 1 neonatal Sprague Dawley rats, plated at a cell density of 10,000 cells/well, and incubated in Biowhittaker Ultraculture containing 1% Penstrep, 1% L-glutamine, 0.7% ARAC, 3% rat serum, and NGF (50 ng/mL, Calomone Labs) at 37° C., under a 5% CO2 atmosphere. After 5 days the cells were treated with compound and cisplatin (3 μg/mL). Viability was assessed 48 hours later using MTS (Promega) staining.

Row | C45 IC50 (CD45) | PP1 IC50 (PP1) | SMILES | IC50 (SCG neurons)
1 | no inh. | no inh. | O=c1oc2c(Sc3ccc4ccccc4c3)cc(O)c(Sc3ccc4ccccc4c3)c2s1 [Compound 30, 4,7-Bis-((2-naphthyl)sulfanyl)-5-hydroxybenzo[1,3]oxathiol-2-one] | –
2 | no inh. | no inh. | O=c1oc2c(Sc3ccc4ccccc4c3)cc(O)cc2s1 [Compound 23, 5-Hydroxy-7-((2-naphthy)sulfanyl)benzo[1,3]oxathiol-2-one] | 15 µM
